Measurements published in PubChem BioAssay AID602191 (Broad Institute, 2012).
Calls of active or inactive are those of the source.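 How the source made its calls: active means fitted curve reaches 40% activation at a concentration no higher than the top valid tested dose; inconclusive means flat fit between 30% and 70% activation, or poor fit; inactive means uptake decrease, flat fit within 30% of zero, the rest.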

Biological target: Scavenger receptor class B member 1 (Mus musculus) (UniProt Q61009)
Test: enhancers of DiI-HDL lipid transfer via SR-BI – cell-based, ldlA[mSR-BI] CHO, DiI fluorescence, cherry-pick, dose response (AID 602191);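 further: cell fluorescence from internalized DiI-labeled HDL after washing; 0% = median of DMSO wells and 100% = twice the DMSO signal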
Settings: ldlA[mSR-BI] CHO cells, 3 h, at 35 µM (top of the series)

Scavenger receptor class B member 1 (Mus musculus), sequence (Q61009 whole entry, looked up): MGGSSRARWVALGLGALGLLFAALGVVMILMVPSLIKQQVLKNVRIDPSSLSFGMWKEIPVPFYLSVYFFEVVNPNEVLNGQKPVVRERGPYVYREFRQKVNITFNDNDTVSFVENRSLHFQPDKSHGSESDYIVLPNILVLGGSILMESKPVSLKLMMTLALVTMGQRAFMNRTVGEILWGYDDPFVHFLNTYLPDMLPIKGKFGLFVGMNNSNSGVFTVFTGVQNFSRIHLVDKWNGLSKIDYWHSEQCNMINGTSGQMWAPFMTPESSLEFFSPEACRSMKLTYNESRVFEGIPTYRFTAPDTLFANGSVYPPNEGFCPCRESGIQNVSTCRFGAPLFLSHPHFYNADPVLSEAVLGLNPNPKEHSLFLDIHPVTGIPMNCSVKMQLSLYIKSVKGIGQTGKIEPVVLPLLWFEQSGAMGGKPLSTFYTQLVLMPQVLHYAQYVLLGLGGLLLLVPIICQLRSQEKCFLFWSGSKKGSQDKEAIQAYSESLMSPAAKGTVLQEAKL

Row | activation (HDL uptake increase) | SMILES
1 | -54.6% (inactive) | C/C(=N\N1C(=O)c2ccccc2NC1c1ccco1)c1ccccc1O (configuration not stated)
2 | -5.33% (inactive) | O=C(NNC(=O)C1CC(c2cccnc2)=NO1)Nc1cccc(F)c1 (configuration not stated)
3 | -6.65% (inactive) | COc1ccc(N(CC(=O)NCc2ccccc2)S(=O)(=O)c2c(C)nn(C)c2C)cc1
4 | -1.31% (inactive) | COc1ccc(OC)c(S(=O)(=O)N2CCN(C(=O)CCc3ccccc3)CC2)c1
5 | -7.64% (inactive) | Cc1cc(C)nc(Nc2ncc(O)n2-c2ccccc2)n1
6 | 6.41% (inactive) | Cc1nc2c3ccccc3nc(NNC(=O)CCC(=O)N3CCN(c4ccccc4)CC3)n2n1
7 | 4.83% (inactive) | COc1ccc(N(C(=O)CNC(=O)c2ccco2)C(C(=O)NC2CCCCC2)c2ccncc2)cc1 (configuration not stated)
8 | -7.88% (inactive) | CC1CCCC(NC(=O)COC(=O)c2ccc3ccccc3n2)C1C (configuration not stated)
9 | -2.46% (inactive) | O=C(O)CCc1nnc(SCC(=O)Nc2ccc(Br)cc2)[nH]c1=O
10 | 7.83% (inactive) | O=C1CCN(S(=O)(=O)c2ccccc2)CCN1CCOCc1cccc(F)c1
11 | 8.8% (inactive) | COC(=O)[C@@H]1C[C@@]2(O)[C@H](O)[C@H](O)[C@H](O)C[C@H]2N1Cc1cccc2ccccc12
12 | -10.4% (inactive) | CCc1nc(SCC(=O)Nc2ccc([N+](=O)[O-])cc2)n[nH]1
13 | -11.4% (inactive) | Cc1ccc(N2C(=O)C(Cc3ccc(O)cc3)NC2=S)cc1C (configuration not stated)
14 | -1.73% (inactive) | CC(C)(C)NC(=O)C[C@H]1C[C@H](C(=O)N2CCOCC2)[C@@]2(CCC3CCCC3)c3[nH]c4cc(-c5ccco5)ccc4c3CCN2C1=O
15 | -3.2% (inactive) | CN1CCN(CCC(=O)N2c3ccccc3Sc3ccc(Cl)cc32)CC1
16 | -25.6% (inactive) | CCOC(=O)N1CCC(NC(=S)Nc2ccc3nc(N4CCN(C)CC4)cc(C)c3c2)CC1
17 | -11.7% (inactive) | O=C(NC(=S)N(Cc1ccccc1)Cc1ccccc1)c1ccccc1F
18 | 9.71% (inactive) | COc1ccccc1N1C(=O)CCC1(C#N)c1ccc(Br)cc1 (configuration not stated)
19 | 8.83% (inactive) | Cc1ncc(CN2CCC(n3nccc3NC(=O)c3ccccc3)CC2)s1
20 | 11.3% (inactive) | Cc1ccc(S(=O)(=O)NC(=O)COc2ccccc2C)c(C)c1
21 | -6.9% (inactive) | COc1ccc(C(=O)Nc2nnc(SCC(=O)Nc3ccc(NC(C)=O)cc3)s2)c(OC)c1

Row | activation (HDL uptake increase) | SMILES
22 | -2.51% (inactive) | CCN(CC)CCCNC(CC(=O)Nc1cccc([N+](=O)[O-])c1)C(=O)O (configuration not stated)
23 | 4.31% (inactive) | CSc1ccc(S(=O)(=O)NCC(=O)OCC(=O)N(C)Cc2ccccc2)cc1[N+](=O)[O-]
24 | -4.13% (inactive) | O=C(CSc1nnc(CCCOc2ccc(Cl)cc2Cl)o1)Nc1ccc(C(=O)O)cc1
25 | -8.43% (inactive) | Cc1cc(C)nc(SCC(=O)OC(C)C(=O)Nc2ccccc2)n1 (configuration not stated)
26 | -9.62% (inactive) | CCc1nn(CC(=O)N2CCN(CC)CC2)c(=O)c2cccn12
27 | 0.818% (inactive) | O=C1N(C2CCCC2)C[C@@H]2C[C@@H](c3cn[nH]c3-c3ccc(Cl)cc3)N3CCC[C@@]123
28 | -14.1% (inactive) | COc1ccc(NC(=O)COC(=O)c2cc(SC)ccc2Cl)c(OC)c1
29 | -1.19% (inactive) | CCN1CCN(C(c2cccc(OC)c2)c2sc3nc(C)nn3c2O)CC1 (configuration not stated)
30 | -16.7% (inactive) | O=C(Cc1ccc(S(=O)(=O)N2CCOCC2)s1)OCc1ccc(Cl)cc1
31 | -7.43% (inactive) | CN1CCN(C(=O)C2=C[C@@H](c3coc4ccccc4c3=O)C[C@@H](OCCCCO)O2)CC1
32 | -13.3% (inactive) | CN(c1ccc(OCC(=O)OCC(=O)Nc2ccc([N+](=O)[O-])cc2)cc1)S(=O)(=O)c1cccs1
33 | 1.48% (inactive) | CC(C)c1ccc(OCC(=O)NCCO)cc1
34 | -4.31% (inactive) | COc1ccccc1N1CCN(C2CCCN(C(=O)c3ccccn3)C2)CC1 (configuration not stated)
35 | -9.78% (inactive) | CCOC(=O)C1CCCN(C(=O)c2cc(S(=O)(=O)N3CCCCCC3)ccc2OC)C1 (configuration not stated)
36 | 13.4% (inactive) | N#Cc1ccc(OCCOCCNC2CCCC2)cc1
37 | -6.8% (inactive) | COc1ccc(NC(=O)CN(C)C(=O)CCC2CCCC2)cc1
38 | -6.57% (inactive) | Cc1ccc(S(=O)(=O)CCC(=O)OCC(=O)Nc2cc(S(=O)(=O)N3CCOCC3)ccc2Cl)cc1
39 | -0.472% (inactive) | COc1ccc2c(c1)C(C)(CCN)C(=O)N2C (configuration not stated)
40 | 11.1% (inactive) | CC(C(=O)NCCS(=O)(=O)c1ccc(Br)cc1)S(=O)(=O)c1ccc(Cl)cc1 (configuration not stated)
41 | -3.5% (inactive) | CCOC(=O)C1CCCN(S(=O)(=O)c2ccc(S(=O)(=O)N3CCCC3)cc2)C1 (configuration not stated)
42 | 10.3% (inactive) | O=C1C2CCCN2C(=O)N1CCCCN1CCN(c2ccccc2)CC1 (configuration not stated)
